The numbers were not newly measured in patent US8748695B2, “Molecular markers linked to PPO inhibitor tolerance in soybeans” (Pioneer Hi-Bred International, Inc., priority 2008, dated 2014), which cites them from elsewhere.

One data set relates to soybean cultivars. To be noted: in vivo.

For `Cc1nn(-c2cc(CC(Cl)C(=O)O)c(Cl)cc2F)c(=O)n1C(F)F` (centres unmarked) [Carfentrazone], the half-life entry was “approximately 4 days”.

In the case of `Cc1nn(-c2cc(NS(C)(=O)=O)c(Cl)cc2Cl)c(=O)n1C(F)F` [sulfentrazone], in the data set with soybean cultivars, the “Growth Reduction Index” value is given as 20%.
